Source: publication PMC10746103, “Development of a HPLC-MS/MS Method to Assess the Pharmacokinetics and Tumour Distribution of the Dimethylarginine Dimethylaminohydrolase 1 Inhibitors ZST316 and L-257 in a Xenograft Model of Triple-Negative Breast Cancer in Mice” (Molecules, 2023)
Where “and” joins values, the source holds several entries; their conditions need not be identical. Equal entries are not always repeated. Entries after “also recorded” stand apart in the source; their conditions may differ.

What was measured:
[1] = Plasma pharmacokinetics of ZST316 and L-257 after intraperitoneal ZST316 in MDA-MB-231 xenograft mice (HPLC-MS/MS); assay type: in vivo, SCID mice
Procedure: (§1) Six-week-old female severe combined immunodeficiency disease (SCID) mice (n = 24; Charles River Laboratories Italia S.r.L., Calco, Lecco, Italy), were housed under rigorous standards and handled under pathogen-free conditions in the Animal Care Facilities of the Mario Negri Institute for Pharmacological Research (Milan, Italy).
(§2) Two ×10^6 (in 10 μL) MDA-MB-231 TNBC cells were transplanted into the mammary fat pad. Tumour growth was regularly monitored with a calliper and treatment with ZST316 was given when the tumour volume reached 400–500 mm^3. Mice received either a single dose (acute treatment) or a daily dose of ZST316 30 mg/Kg intraperitoneally for five days (chronic treatment).
(§3) Plasma and tumour tissue (n = 3 mice/each time point) were sampled at 1, 8 and 24 h after treatment (on day 5 for the chronic treatment). To collect plasma, mice were anesthetized by isoflurane, the blood was drained from the retro-orbital plexus into heparinised tubes and centrifuged for 10 min at 4000× g at 4 °C. Tumours were collected and immediately frozen. Plasma and tumour samples were stored at −20 °C until analysis.
To assay ZST316 and L-257, 10 μL of IS (ZST152 WS: 500 ng/mL) were added to 100 μL of study plasma samples, standards, and QCs in a polypropylene tube. The samples were then added with 10 μL of NH4COOH 50 mM, mixed and added with 400 μL CH3OH:0.1% HCOOH, vortex mixed again and centrifuged at 13,200 rpm for 10 min at 4 °C. The supernatant was transferred to a 1.5 mL Eppendorf tube, dried under nitrogen flow and reconstituted with 100 μL of mobile phase (MP) A:B (1:1, v/v). Finally, the samples were centrifuged at 13,200 rpm for 10 min at 4 °C and the supernatant transferred into vials for HPLC-MS/MS analysis.
(§4) Reversed-phase chromatography was performed under gradient conditions with separation on a HILIC column, C18, 3 μm, 100 A, 2.1 × 150 mm, Waters (Milford, MA, USA), coupled with a 3 μm, 3.9 × 5.0 mm guard column of the same material at the flow rate of 0.2 mL/min. Gradient features were: 10% mobile phase (MP) A (NH4HCO2 10 mM, 10% CH3CN, 0.1% HCOOH) and 90% MP B (CH3CN, 0.1% HCOOH) as initial constant condition; then to 90% MP A in 6 min and constant condition for 1.5 min. Return to start condition in 0.5 min and conditioning for 5.5 min. Total run time: 13.5 min. Analyte detection and quantification were performed using tandem mass spectrometry (MS/MS) operating in positive ionization mode as previously reported for ZST316 and ZST152 [31].

DDAH1 = details: cited from earlier work
[2] = Stability of ZST316 and L-257 in frozen plasma; assay type: in vitro ADME, mice; details: for Mean found value, Stability −20 °C / Accuracy (%), Stability −20 °C: plasma QC, one month at −20 °C; for Mean found value, Stability −20 °C: n=3; for Accuracy (%), Stability −20 °C: percent of nominal
Procedure: The stability of ZST316 and L-257 in plasma was assessed by analysing QC samples containing both compounds after prolonged storage in the same conditions of the study samples.
Stability was determined by analysing 3 QCs per concentration level immediately after the preparation, and 3 QCs per concentration level after one month of storage at −20 °C. The analytes were considered stable at each QC concentration when the freshly prepared samples and the stability test samples differed by no more than 15% from the nominal concentrations.

[3] = Tumour distribution of ZST316 and L-257 after intraperitoneal ZST316 in MDA-MB-231 TNBC xenograft (HPLC-MS/MS); assay type: in vivo, SCID mice; details: for time intra-tumour concentration remained above the IC50 and Ki values for DDAH1 inhibition: estimated
Procedure: as §1, §2, §3
Control MDA-MB-231 TNBC cell tumours were homogenized with NH4COOH 50 mM (1:4, w:v). The homogenate (90 μL) was spiked with 5 μL of ZST316 and L-257 working solutions prepared in the range of 100–10,000 ng/mL generating seven tumour calibration standards in the range 25–5000 ng/g. The calibration curve included also a blank and a zero blank standard plasma sample (processed with IS). To prepare QC samples, 90 μL of the homogenate was mixed with an appropriate amount of QC working solutions to obtain QC plasma samples at the nominal concentration of 75, 375, and 1250 ng/g.
The procedure was similar to that described for plasma in Section 3.3.2.
as §4

[4] = acute (single dose) ZST316 30 mg/Kg i.p., 1 h
[5] = acute ZST316 30 mg/Kg i.p., 1 h
[6] = acute ZST316 30 mg/Kg i.p., 8 h
[7] = acute ZST316 30 mg/Kg i.p., 8 h, n=3
[8] = acute ZST316 30 mg/Kg i.p., 24 h
[9] = acute ZST316 30 mg/Kg i.p., approximately estimated due to limited time points
[10] = chronic (five-day) ZST316 30 mg/Kg i.p. daily, 1 h
[11] = chronic (five-day) ZST316 30 mg/Kg i.p. daily, 24 h
[12] = chronic ZST316 30 mg/Kg i.p. daily
[13] = chronic ZST316 30 mg/Kg i.p. daily, day 5, 1 h
[14] = chronic ZST316 30 mg/Kg i.p. daily, day 5, 8 h
[15] = chronic ZST316 30 mg/Kg i.p. daily, day 5, 8 h, n=3
[16] = chronic ZST316 30 mg/Kg i.p. daily, day 5, 24 h
[17] = chronic ZST316 30 mg/Kg i.p. daily, approximately estimated due to limited time points
[18] = range over acute and chronic treatment

mean plasma concentration [1, 4]: 2.02 µg/mL | Cmax ([1]; acute ZST316 30 mg/Kg i.p.): 8.7 µM | Cmax plasma ([1]; acute ZST316 30 mg/Kg i.p.): 2020 ng/mL | Plasma AUC1–24 h ([1]; acute ZST316 30 mg/Kg i.p.): 0.061 | Plasma AUC1–24 h ([1]; acute ZST316 30 mg/Kg i.p. (day 1)): 14.1 µg·h/mL | mean plasma concentration [1, 7]: 385 ng/mL and 1.66 μM | half-life plasma [1, 9]: 4.2 h | mean plasma concentration [1, 10]: 1.60 µg/mL | mean plasma concentration [1, 11]: 0.06 µg/mL | Cmax [1, 12]: 6.89 µM | Cmax plasma [1, 12]: 1600 ng/mL | Plasma AUC1–24 h [1, 12]: 0.044 | Plasma AUC1–24 h ([1]; chronic ZST316 30 mg/Kg i.p. daily (day 5)): 10.3 µg·h/mL | mean plasma concentration [1, 15]: 198 ng/mL and 0.85 μM | half-life plasma [1, 17]: 5.3 h | half-life plasma [1, 18]: 4.2 to 5.3 h | measured concentration in unknown study plasma sample (Figure 2) ([1]; representative chromatogram, sample taken at 1 h after acute treatment (b8)): 1710 ng/mL | stability in frozen plasma ([2]; at least one month at −20 °C): stable | Mean found value, Stability −20 °C ([2]; actual value 15.00 ng/mL): 15.8 ng/mL | Accuracy (%), Stability −20 °C ([2]; actual value 15.00 ng/mL): 105.6% | Mean found value, Stability −20 °C ([2]; actual value 75.00 ng/mL): 75.7 ng/mL | Accuracy (%), Stability −20 °C ([2]; actual value 75.00 ng/mL): 101.0% | Mean found value, Stability −20 °C ([2]; actual value 250.00 ng/mL): 259.5 ng/mL | Accuracy (%), Stability −20 °C ([2]; actual value 250.00 ng/mL): 103.8% | mean intra-tumour concentration [3, 4]: 3.5 µg/g | mean intra-tumour concentration ([3]; acute (single dose) ZST316 30 mg/Kg i.p., 24 h): 0.04 µg/g | Cmax tumour ([3]; acute ZST316 30 mg/Kg i.p.): 3.50 μg/g and 15.08 μM | tumour AUC ([3]; acute ZST316 30 mg/Kg i.p.): 23.9 µg·h/g | mean tumour concentration [3, 7]: 645 ng/g and 2.78 μM | half-life tumour [3, 9]: 3.6 h | time intra-tumour concentration remained above the IC50 and Ki values for DDAH1 inhibition ([3]; after acute ZST316 treatment): 4 h | time intra-tumour concentration remained above the IC50 and Ki values for DDAH1 inhibition ([3]; after chronic ZST316 treatment): 3.5 h | mean intra-tumour concentration [3, 10]: 3.24 µg/g | mean intra-tumour concentration [3, 11]: 0.10 µg/g | Cmax tumour [3, 12]: 3.24 μg/g and 13.96 μM | tumour AUC [3, 12]: 20.3 µg·h/g | mean tumour concentration [3, 15]: 381 ng/g and 1.64 μM | mean tumour concentration [3, 16]: 97 ng/g | mean tumour concentration ([3]; chronic ZST316 30 mg/Kg i.p. daily, day 5, 24 h, n=3): 0.30 µM | half-life tumour [3, 17]: 4.9 h | half-life tumour [3, 18]: 3.6 to 4.9 h | measured concentration in unknown study tumour sample (Figure 3) ([3]; representative chromatogram, sample taken at 24 h after acute treatment (b8)): 30.7 ng/g
SMILES: COCCNC(N)=NCCC[C@H](N)C(=O)O [L-257]
accumulation in plasma and tumour during chronic treatment ([1]; ZST316 30 mg/Kg i.p. daily for five days, day 5 vs day 1): without accumulation; also recorded: no accumulation | plasma concentration, individual mice [1, 5]: 2610 ng/mL and 1700 ng/mL and 1760 ng/mL and 11.24 µM and 7.32 µM and 7.58 µM | plasma concentration, individual mice [1, 6]: 272 ng/mL and 382 ng/mL and 2.16 µM and 1.17 µM and 1.65 µM and 502 ng/mL | plasma concentration, individual mice [1, 8]: 38 ng/mL and 32.5 ng/mL and 47.8 ng/mL and 0.16 µM and 0.14 µM and 0.21 µM | plasma concentration, individual mice [1, 13]: 1600 ng/mL and 1500 ng/mL and 1710 ng/mL and 6.89 µM and 6.46 µM and 7.37 µM | plasma concentration, individual mice [1, 14]: 249 ng/mL and 136 ng/mL and 0.90 µM and 1.07 µM and 0.59 µM and 209 ng/mL | plasma concentration, individual mice [1, 16]: 58.8 ng/mL and 95.2 ng/mL and 29.1 ng/mL and 0.25 µM and 0.41 µM and 0.13 µM | Ki (DDAH1; dotted line in figures): 7 µM | Ki expressed as concentration (DDAH1; equivalent of 7 μM): 1.625 µg/mL | tumour concentration, individual mice [3, 5]: 3590 ng/g and 2810 ng/g and 4090 ng/g and 15.5 µM and 12.1 µM and 17.6 µM | tumour concentration, individual mice [3, 6]: 225 ng/g and 1060 ng/g and 2.8 µM and 0.97 µM and 4.57 µM and 651 ng/g | tumour concentration, individual mice [3, 8]: 30.7 ng/g and 33.1 ng/g and 56.1 ng/g and 0.13 µM and 0.14 µM and 0.24 µM | tumour concentration, individual mice [3, 13]: 3550 ng/g and 2810 ng/g and 3350 ng/g and 15.29 µM and 12.10 µM and 14.43 µM | tumour concentration, individual mice [3, 14]: 413 ng/g and 403 ng/g and 326 ng/g and 1.78 µM and 1.74 µM and 1.40 µM | tumour concentration, individual mice [3, 16]: 35.5 ng/g and 159 ng/g and < LOQ and 0.15 µM and 0.68 µM and 0.05 µM
